Reference: PubChem BioAssay (NCI)
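Grown in 96-well plates, cells were treated for 48 hours with each compound at five concentrations. Insufficient inhibition: endpoint recorded as highest concentration tested. Abbreviation: GI50, concentration required for 50% inhibition of growth. TGI: total growth inhibition.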

Legend:
Assay in all cases: NCI tumour cell line growth inhibition, 48 h
A549 NSCLC = system: A549 NSCLC
ACHN renal = system: ACHN renal
BT-549 breast = system: BT-549 breast
CAKI-1 renal = system: CAKI-1 renal
HOP-92 NSCLC = system: HOP-92 NSCLC
NCI/ADR-RES ovarian = system: NCI/ADR-RES ovarian
OVCAR-4 ovarian = system: OVCAR-4 ovarian
SNB-75 CNS = system: SNB-75 CNS
TK-10 renal = system: TK-10 renal
SK-OV-3 ovarian = system: SK-OV-3 ovarian

Structure (SMILES) | GI50 (A549 NSCLC) | TGI (A549 NSCLC) | GI50 (ACHN renal) | TGI (ACHN renal) | GI50 (BT-549 breast) | TGI (BT-549 breast) | GI50 (CAKI-1 renal) | TGI (CAKI-1 renal) | GI50 (HOP-92 NSCLC) | TGI (HOP-92 NSCLC) | GI50 (NCI/ADR-RES ovarian) | TGI (NCI/ADR-RES ovarian) | GI50 (OVCAR-4 ovarian) | TGI (OVCAR-4 ovarian) | GI50 (SNB-75 CNS) | TGI (SNB-75 CNS) | GI50 (TK-10 renal) | TGI (TK-10 renal) | TGI (SK-OV-3 ovarian) | GI50 (SK-OV-3 ovarian)
COc1ccc2c(c1)C(=O)c1c-2c(NCCCN(C)C)nc2ccccc12 | 1.86 µM | 6 µM | 1.11 µM | 2.31 µM | 21.8 µM | 62.3 µM | 12.5 µM | 29.6 µM | 1.15 µM | 8.6 µM | 4.03 µM | 19.4 µM | 0.898 µM | 16.4 µM | 0.997 µM | 11.8 µM | 4.33 µM | 18.3 µM |  | 
CCCCOC1CC2(c3ccc(OC)cc3)C(=O)c3ccccc3N2O1 (centres undefined) |  | > 100 µM |  | > 10 µM |  |  |  | > 100 µM |  |  |  |  |  |  |  | > 100 µM |  | > 100 µM | > 100 µM | 
Cn1ncc2cc(-c3cnc(N)c(Cl)c3N3CCC4(CCNC4=O)CC3)ccc21 | > 100 µM | > 100 µM |  |  | 29.2 µM | > 100 µM |  |  | 13 µM | 82.4 µM | 32.8 µM | > 100 µM | 38.9 µM | > 100 µM | 17 µM | 77.8 µM | 36.1 µM | > 100 µM | > 100 µM | 31.5 µM
COc1ccc2c(c1)Oc1nc(N)c(C#N)c(N)c1C2Sc1ccc(SC)cc1 (centres undefined) | 2 µM | 3.91 µM | 1.74 µM | 3.11 µM | 1.63 µM | 3 µM |  |  | 1.94 µM | 3.56 µM | 2.42 µM | 6.05 µM | 1.64 µM | 3.07 µM | 1.46 µM | 2.8 µM | 1.77 µM | 3.17 µM | 3.16 µM | 1.77 µM
OCC(O)CC[CH2][Sn]([c]1ccccc1)([c]1ccccc1)[c]1ccccc1 (centres undefined) | 10.7 µM | 22.6 µM | 8.89 µM | 21 µM |  |  | 8.12 µM | 21.5 µM | 10.9 µM | 24 µM |  |  | 16.5 µM | 32.2 µM | 15.4 µM | 29 µM | 17 µM | 31.2 µM | 34.1 µM | 19.7 µM
CC1OCC2OC(C)OC(C3C4=C(CC(C)(C)CC4=O)OC4=C3C(=O)CC(C)(C)C4)C2O1 (centres undefined) |  | > 100 µM |  | > 100 µM |  |  |  | > 100 µM |  | > 100 µM |  | > 100 µM |  |  |  | > 100 µM |  | > 100 µM | > 100 µM | 
O=c1/c(=C/c2cccc3ccccc23)sc2nc3ccccc3n12 |  | > 100 µM |  | > 100 µM |  |  |  | > 100 µM |  | > 100 µM |  |  |  | > 100 µM |  | > 100 µM |  | > 100 µM |  | 
CCOC(C)OCC#CCCBr (centres undefined) |  | > 100 µM |  | > 100 µM |  |  |  | > 100 µM |  |  |  |  |  | > 100 µM |  | > 100 µM |  | > 100 µM | > 100 µM | 
COc1ccc(-c2nc(-c3nc4ccc(F)cc4[nH]3)cc3c2[nH]c2ccccc23)cc1 | 2.21 µM | 7.5 µM | 2.87 µM | > 100 µM | 3.18 µM | 9.72 µM | 3.87 µM | > 100 µM |  |  | 2.77 µM | > 100 µM | 5.1 µM | > 100 µM |  |  | 2.2 µM | 6.74 µM | > 100 µM | 4 µM
CC(C)C1CN1CC(O)Cn1ccnc1[N+](=O)[O-] (centres undefined) |  | > 100 µM |  | > 100 µM |  | > 100 µM |  | > 100 µM |  |  |  | > 100 µM |  | > 100 µM |  | > 100 µM |  | > 100 µM | > 100 µM | 
CC(C)(C)c1nc2c(o1)C(=Nc1ccccc1)c1ccccc1C2=O |  | 23.5 µM |  | 26.6 µM |  |  |  | 64.9 µM |  | 23.8 µM |  |  |  | 10.2 µM |  | 13.6 µM |  | 59.6 µM | 63.4 µM | 
O=C(/C=C/c1ccc(OCCCCCCCCCCOc2ccc(/C=C/C(=O)c3ccc(Cl)cc3)cc2)cc1)c1ccc(Cl)cc1 |  | > 100 µM |  | > 100 µM |  |  |  | > 100 µM |  | > 100 µM |  |  |  |  |  | > 100 µM |  | > 100 µM | > 100 µM | 
CS(=O)(=O)C1S(=O)(=O)OCCOS1(=O)=O |  | > 100 µM |  | > 100 µM |  |  |  | > 100 µM |  | > 100 µM |  |  |  | > 100 µM |  | > 100 µM |  | > 100 µM | > 100 µM | 
O=[N+]([O-])c1ccccc1S(=O)c1ccccc1 (centres undefined) |  | > 100 µM |  | > 100 µM |  |  |  | > 100 µM |  | > 100 µM |  |  |  | > 100 µM |  | 58.7 µM |  | > 100 µM | > 100 µM | 
COc1cc(OC)cc(N2CCC(c3c(N)nc(N)nc3Cl)CC2)c1 |  | > 100 µM |  | > 100 µM |  |  |  | > 100 µM |  | > 100 µM |  |  |  | > 100 µM |  | > 100 µM |  | > 100 µM | > 100 µM | 
O=C1c2ccn(CCCCN3CCOCC3)c2C(=O)c2c1c(O)c1ccccc1c2O | 14.4 µM | 38.7 µM | 10.8 µM | 28.4 µM |  |  | 5.94 µM | 21 µM |  |  | 4.44 µM | 23.8 µM | 30.3 µM | > 100 µM | > 100 µM | > 100 µM | 1.56 µM | 7.7 µM | 55.4 µM | 16.2 µM
O=CC1=CCCC2(C1)OCCO2 |  | > 100 µM |  |  |  |  |  | > 100 µM |  | > 100 µM |  |  |  | > 100 µM |  | 24.2 µM |  | > 100 µM | > 100 µM | 
Cc1ccc(S(=O)(=O)N(C)C)cc1[N+](=O)[O-] | > 100 µM | > 100 µM | > 100 µM | > 100 µM |  |  | > 100 µM | > 100 µM | > 100 µM | > 100 µM | > 100 µM | > 100 µM |  |  |  |  | > 100 µM | > 100 µM | > 100 µM | > 100 µM
COc1ccc(CC(=O)c2cc(OC)c(OC)cc2C)cc1OC |  | > 100 µM |  | > 100 µM |  |  |  | > 100 µM |  |  |  |  |  | > 100 µM |  | > 100 µM |  | > 100 µM | > 100 µM | 
